In ChEMBL document CHEMBL5291721, “A preclinical secondary pharmacology resource illuminates target-adverse drug reaction associations of marketed drugs” (Nat Commun, 2023):
Several values for one entry are separate records, joined by “and”; a condition that tells them apart may be missing. Equal entries are not always repeated.

Tests used:
Progesterone receptor [1] = target: T1, Progesterone receptor (Homo sapiens, UniProt P06401); type: functional
T1 sequence (P06401 whole entry): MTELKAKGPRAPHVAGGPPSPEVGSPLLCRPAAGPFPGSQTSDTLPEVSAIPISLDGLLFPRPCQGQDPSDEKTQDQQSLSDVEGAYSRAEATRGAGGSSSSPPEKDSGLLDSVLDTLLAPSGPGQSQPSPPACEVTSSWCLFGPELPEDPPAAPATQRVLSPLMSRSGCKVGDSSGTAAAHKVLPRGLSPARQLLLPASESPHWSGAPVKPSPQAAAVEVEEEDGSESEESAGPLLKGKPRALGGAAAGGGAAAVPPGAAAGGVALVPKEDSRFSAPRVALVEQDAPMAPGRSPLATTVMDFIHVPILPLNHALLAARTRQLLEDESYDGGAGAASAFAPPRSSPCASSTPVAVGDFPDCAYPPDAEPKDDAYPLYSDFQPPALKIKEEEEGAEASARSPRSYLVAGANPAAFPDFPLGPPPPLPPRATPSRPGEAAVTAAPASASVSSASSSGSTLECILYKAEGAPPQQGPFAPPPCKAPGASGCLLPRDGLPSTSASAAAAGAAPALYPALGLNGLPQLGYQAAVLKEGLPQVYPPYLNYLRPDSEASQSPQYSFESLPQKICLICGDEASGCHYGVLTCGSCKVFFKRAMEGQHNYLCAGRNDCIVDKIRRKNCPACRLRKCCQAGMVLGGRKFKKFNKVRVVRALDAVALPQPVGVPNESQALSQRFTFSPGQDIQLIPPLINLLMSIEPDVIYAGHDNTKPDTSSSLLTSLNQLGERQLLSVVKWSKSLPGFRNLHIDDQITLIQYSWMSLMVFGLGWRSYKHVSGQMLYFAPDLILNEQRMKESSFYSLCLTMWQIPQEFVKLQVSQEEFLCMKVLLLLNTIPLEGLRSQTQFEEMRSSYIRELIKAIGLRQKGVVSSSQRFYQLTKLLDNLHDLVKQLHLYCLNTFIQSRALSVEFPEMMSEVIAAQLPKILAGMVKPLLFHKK

Glucocorticoid receptor = target: T2, Glucocorticoid receptor (Homo sapiens, UniProt P04150)
T2 sequence (P04150 whole entry): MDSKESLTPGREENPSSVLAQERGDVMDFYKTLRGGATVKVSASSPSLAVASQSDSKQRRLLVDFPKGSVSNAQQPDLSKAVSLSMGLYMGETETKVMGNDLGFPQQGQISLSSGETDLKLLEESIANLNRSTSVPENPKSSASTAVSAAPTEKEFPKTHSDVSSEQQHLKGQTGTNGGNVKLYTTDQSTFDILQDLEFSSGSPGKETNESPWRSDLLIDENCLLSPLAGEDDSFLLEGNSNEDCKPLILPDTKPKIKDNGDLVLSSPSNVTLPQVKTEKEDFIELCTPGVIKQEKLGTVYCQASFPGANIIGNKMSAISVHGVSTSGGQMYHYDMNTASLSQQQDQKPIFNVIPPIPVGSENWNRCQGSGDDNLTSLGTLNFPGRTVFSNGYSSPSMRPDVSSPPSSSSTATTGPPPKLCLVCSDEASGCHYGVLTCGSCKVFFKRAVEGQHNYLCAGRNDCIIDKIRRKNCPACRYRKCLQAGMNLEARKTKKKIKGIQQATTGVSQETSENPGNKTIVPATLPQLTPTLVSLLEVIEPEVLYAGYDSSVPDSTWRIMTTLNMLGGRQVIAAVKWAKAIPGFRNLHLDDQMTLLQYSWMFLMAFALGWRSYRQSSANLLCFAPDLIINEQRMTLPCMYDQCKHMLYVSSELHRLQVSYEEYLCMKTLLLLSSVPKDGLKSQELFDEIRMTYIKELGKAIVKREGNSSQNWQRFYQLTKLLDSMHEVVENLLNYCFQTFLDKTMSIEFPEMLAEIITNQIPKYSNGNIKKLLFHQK

Progesterone receptor [2] = target: T1, Progesterone receptor; type: functional; remark: listed apart in the source
Mu-type opioid receptor = Mu-type opioid receptor (Homo sapiens, UniProt P35372)
Mu-type opioid receptor, sequence (P35372 whole entry): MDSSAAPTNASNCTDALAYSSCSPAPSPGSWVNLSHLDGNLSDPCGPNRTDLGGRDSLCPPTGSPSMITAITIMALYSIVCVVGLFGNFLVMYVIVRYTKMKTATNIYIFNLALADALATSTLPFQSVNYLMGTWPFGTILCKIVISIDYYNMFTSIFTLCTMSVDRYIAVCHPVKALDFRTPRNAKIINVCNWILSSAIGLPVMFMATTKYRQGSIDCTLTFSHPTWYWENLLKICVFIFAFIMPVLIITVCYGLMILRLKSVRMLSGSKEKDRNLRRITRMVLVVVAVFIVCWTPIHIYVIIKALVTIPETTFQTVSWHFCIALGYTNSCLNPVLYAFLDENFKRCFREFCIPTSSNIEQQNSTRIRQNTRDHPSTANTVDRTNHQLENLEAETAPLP

[3] = target: T3, Alpha-1A adrenergic receptor (Homo sapiens, UniProt P35348); type: functional, cell-based
T3 sequence (P35348 whole entry): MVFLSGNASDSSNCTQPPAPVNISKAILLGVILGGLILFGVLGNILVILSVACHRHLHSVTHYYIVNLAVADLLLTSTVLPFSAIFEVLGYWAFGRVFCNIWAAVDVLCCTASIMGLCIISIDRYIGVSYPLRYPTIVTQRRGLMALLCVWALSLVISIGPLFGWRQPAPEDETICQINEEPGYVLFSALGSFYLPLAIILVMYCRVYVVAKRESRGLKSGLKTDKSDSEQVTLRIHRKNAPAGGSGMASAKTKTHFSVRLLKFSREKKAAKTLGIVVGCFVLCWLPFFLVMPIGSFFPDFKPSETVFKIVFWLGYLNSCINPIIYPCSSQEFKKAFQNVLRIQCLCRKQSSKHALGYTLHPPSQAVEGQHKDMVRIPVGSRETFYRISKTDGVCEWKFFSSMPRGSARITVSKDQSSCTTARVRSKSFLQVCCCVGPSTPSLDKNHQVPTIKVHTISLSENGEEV

[4] = target: T3, Alpha-1A adrenergic receptor; type: functional, cell-based; remark: listed apart in the source
[5] = target: T4, 5-hydroxytryptamine receptor 1A (Homo sapiens, UniProt P08908)
T4 sequence (P08908 whole entry): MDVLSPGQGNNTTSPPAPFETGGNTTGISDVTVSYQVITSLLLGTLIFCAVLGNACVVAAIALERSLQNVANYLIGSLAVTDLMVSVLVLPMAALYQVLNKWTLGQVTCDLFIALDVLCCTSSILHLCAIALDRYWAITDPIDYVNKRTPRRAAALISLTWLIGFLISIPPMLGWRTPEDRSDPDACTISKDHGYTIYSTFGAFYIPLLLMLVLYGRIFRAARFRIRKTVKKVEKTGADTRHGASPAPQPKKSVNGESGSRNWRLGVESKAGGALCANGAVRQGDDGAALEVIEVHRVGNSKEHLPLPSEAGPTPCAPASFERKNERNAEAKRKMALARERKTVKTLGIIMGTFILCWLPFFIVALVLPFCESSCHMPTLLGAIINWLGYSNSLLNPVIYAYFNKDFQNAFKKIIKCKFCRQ
Further: assay procedure not described here.

SMILES | AC50 (Progesterone receptor [1]) | AC50 (Glucocorticoid receptor) [µM] | AC50 (Progesterone receptor [2]) [µM] | AC50 (Mu-type opioid receptor) [µM] | AC50 [3] [µM] | AC50 [4] [µM] | AC50 [5] [µM]
CO/N=C(\C(=O)N[C@@H]1C(=O)N2C(C(=O)[O-])=C(C[N+]3(C)CCCC3)CS[C@H]12)c1csc(N)n1 | > 30 µM and 140 µM | > 30 | > 300 | > 300 | > 300 | > 300 | –
C[C@H]1O[C@H](O[C@H]2[C@H](O)[C@@H](O)[C@@H](O[C@H]3[C@H](O)[C@@H](O)C(O)O[C@@H]3CO)O[C@@H]2CO)[C@H](O)[C@@H](O)[C@@H]1N[C@H]1C=C(CO)[C@@H](O)[C@H](O)[C@H]1O (stereo not given in full) [ACARBOSE] | > 30 µM | > 30 | > 30 | > 10 | > 30 | > 30 | > 30
CC(C)C(=O)Nc1ccc([N+](=O)[O-])c(C(F)(F)F)c1 [FLUTAMIDE] | > 10 µM | – | > 10 | > 30 | > 30 | > 30 | > 30
NC[C@H]1O[C@H](O[C@H]2[C@H](O)[C@@H](O[C@H]3O[C@H](CO)[C@@H](O)[C@H](N)[C@H]3O)[C@H](N)C[C@@H]2N)[C@H](O)[C@@H](O)[C@@H]1O [KANAMYCIN] | > 10 µM | > 10 | > 10 | > 30 | > 30 | > 30 | –
COC(=O)C1=C(C)NC(C)=C(C(=O)OCC(C)C)C1c1ccccc1[N+](=O)[O-] (stereo not given) [NISOLDIPINE] | 4.9 µM | 8.8 | > 30 | 9.4 | 11 | > 30 | –
NC(=O)c1cnccn1 [PYRAZINAMIDE] | > 30 µM | > 30 | > 30 | > 30 | 28 | > 30 | > 30
O=C(NC[C@H]1CN(c2ccc(N3CCOCC3=O)cc2)C(=O)O1)c1ccc(Cl)s1 [RIVAROXABAN] | > 30 µM | – | > 30 | > 30 | > 30 | > 30 | > 30
CNC(=O)c1cc(Oc2ccc(NC(=O)Nc3ccc(Cl)c(C(F)(F)F)c3)cc2)ccn1 [SORAFENIB] | > 30 µM | > 30 | > 30 | > 30 | 15 | > 30 | –
